Among the test systems are OVCAR-8 ovarian; MDA-MB-231 breast; NCI-H226 lung; NCI-H522 lung; SK-MEL-28 melanoma; SNB-19 CNS; U251 CNS; OVCAR-3 ovarian; OVCAR-5 ovarian; MALME-3M melanoma.
Common to all, as to assay: growth of human tumour cells (NCI), 48 h

Among the data in PubChem BioAssay (NCI) are GI50 and TGI values, retold here.

Structures are written as SMILES. Values joined by “and” are separate entries in the source; they are usually repeats but may differ in a detail not shown here. Identical values can stand only once.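 Values below derive from 48-hour exposures of cells grown in 96-well plates, with endpoints linearly interpolated between the two concentrations bracketing the appropriate inhibition level. The concentration for 50% growth inhibition is given as GI50. TGI marks complete inhibition of growth.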

Take `COc1ccc(OCC(O)CN2CCN(c3ccc(Cl)cc3)CC2)cc1` (configuration not stated): the GI50 is 88.5 µM with OVCAR-8 ovarian; 66.1 µM with MDA-MB-231 breast; 37.9 µM with NCI-H226 lung; 69.3 µM with NCI-H522 lung; greater than 100 µM with SK-MEL-28 melanoma; 77.7 µM with SNB-19 CNS. Also, the GI50 in the assay on U251 CNS is 79.3 µM; with OVCAR-3 ovarian, greater than 100 µM; in the assay with OVCAR-5 ovarian, greater than 100 µM; in the assay on MALME-3M melanoma it was 59.7 µM. In addition, the TGI with OVCAR-8 ovarian, in the assay on MDA-MB-231 breast, with NCI-H226 lung, in the assay on NCI-H522 lung, in the assay with SK-MEL-28 melanoma and with SNB-19 CNS was greater than 100 µM throughout. Moreover, the TGI with U251 CNS, with OVCAR-3 ovarian, in the assay with OVCAR-5 ovarian and in the assay on MALME-3M melanoma was greater than 100 µM in each case.
Regarding `Cc1ccc(S(=O)(=O)N2CCC(C(=O)O)(c3ccccc3)CC2)cc1`, the TGI in the assay on OVCAR-8 ovarian, in the assay on MDA-MB-231 breast, in the assay on NCI-H226 lung, in the assay with NCI-H522 lung, in the assay with SK-MEL-28 melanoma and with SNB-19 CNS was greater than 100 µM throughout. Besides, the TGI in the assay on U251 CNS, with OVCAR-3 ovarian, in the assay on OVCAR-5 ovarian and in the assay with MALME-3M melanoma was greater than 100 µM throughout.
On to `N/C(=N\C(N)=N\c1nc2ccccc2s1)c1cnccn1`, for which the GI50 in the assay with OVCAR-8 ovarian is 3.11 µM; in the assay with MDA-MB-231 breast, 3.91 µM; with NCI-H226 lung it was 2.45 µM; in the assay on NCI-H522 lung it was 2.16 µM; in the assay with SK-MEL-28 melanoma, 2.3 µM; in the assay on SNB-19 CNS, 3.57 µM. Moreover, the GI50 in the assay with U251 CNS is 2.96 µM; with OVCAR-3 ovarian, 2.79 µM; in the assay on OVCAR-5 ovarian it was 3.68 µM; in the assay with MALME-3M melanoma, 2.27 µM. Further, the TGI in the assay with OVCAR-8 ovarian was 26.5 µM; with MDA-MB-231 breast, greater than 100 µM; in the assay on NCI-H226 lung, 6.34 µM; with NCI-H522 lung, 6.16 µM; in the assay with SK-MEL-28 melanoma it was 6.06 µM; in the assay on SNB-19 CNS, 41.6 µM. In addition, the TGI in the assay on U251 CNS is 14.9 µM; in the assay with OVCAR-3 ovarian, 7.86 µM; in the assay with OVCAR-5 ovarian it was greater than 100 µM; in the assay on MALME-3M melanoma it was 5.66 µM.
On to `Nc1nc(=S)c2[nH]cnc2[nH]1`, for which the GI50 with OVCAR-8 ovarian is 0.374 µM and 0.432 µM and 0.91 µM; in the assay with MDA-MB-231 breast it was 0.323 µM and 1.36 µM; in the assay on NCI-H226 lung, 0.72 µM and 6.95 µM; in the assay with NCI-H522 lung it was 0.418 µM and 2.07 µM and 1 µM; in the assay on SK-MEL-28 melanoma, 1.94 µM and 6.07 µM; in the assay on SNB-19 CNS it was 39.2 µM and 89 µM and 48.6 µM. Moreover, the GI50 is 1.49 µM and 3.11 µM in the assay with U251 CNS; 0.446 µM and 1.44 µM and 1.1 µM in the assay on OVCAR-3 ovarian; 0.498 µM and 1.93 µM in the assay with OVCAR-5 ovarian; 0.583 µM and 3.13 µM and 1.43 µM with MALME-3M melanoma. In addition, the TGI in the assay with MDA-MB-231 breast was > 100 µM and 150 µM and > 250 µM; with NCI-H226 lung, > 59.5 µM and 106 µM and 102 µM; in the assay with NCI-H522 lung, 3.04 µM and 6.04 µM and 7.26 µM; in the assay with SK-MEL-28 melanoma it was 28.8 µM and 162 µM; with SNB-19 CNS it was > 100 µM and 241 µM and > 250 µM; in the assay on U251 CNS it was > 100 µM and 241 µM and > 226 µM. For the same compound, the TGI is 6.32 µM and 7.68 µM and 9.64 µM with OVCAR-3 ovarian; > 100 µM and 46 µM and > 250 µM with OVCAR-5 ovarian; 10.9 µM and 24.7 µM and 29.3 µM in the assay on MALME-3M melanoma.
In the case of `COC(=O)c1ccc2[nH]c(O)c(C(=Nc3ccc(N(C)C(=O)CN4CCN(C)CC4)cc3)c3ccccc3)c2c1`, the GI50 is 1.61 µM in the assay with OVCAR-8 ovarian; 1.28 µM in the assay on MDA-MB-231 breast; 0.993 µM in the assay with NCI-H226 lung; 1.49 µM with NCI-H522 lung; 1.62 µM in the assay on SK-MEL-28 melanoma; 2.95 µM with SNB-19 CNS. The figures for the GI50 in the assay with OVCAR-3 ovarian, in the assay on OVCAR-5 ovarian and in the assay on MALME-3M melanoma were 1.41 µM, 2.63 µM and 1.43 µM, respectively. Moreover, the TGI in the assay on OVCAR-8 ovarian is 7.1 µM; in the assay on MDA-MB-231 breast, 3.17 µM; with NCI-H226 lung, 4.99 µM; with NCI-H522 lung, 4.41 µM; in the assay with SK-MEL-28 melanoma, 3.34 µM; with SNB-19 CNS it was 8.33 µM. Further, the results for the TGI in the assay on OVCAR-3 ovarian, in the assay on OVCAR-5 ovarian and in the assay on MALME-3M melanoma were 3.23 µM, 6.8 µM and 2.86 µM, respectively.
Consider `Cn1ccnc1C(=O)/C=C/c1ccc(C(=O)Nc2c(F)c(F)c(F)c(F)c2F)cc1`, for which the GI50 is 1.72 µM in the assay on OVCAR-8 ovarian; 2.27 µM with MDA-MB-231 breast; 2.7 µM with NCI-H226 lung; 1.8 µM with NCI-H522 lung; 2.17 µM in the assay on SK-MEL-28 melanoma; 1.56 µM in the assay with SNB-19 CNS. Also, the GI50 in the assay with U251 CNS is 1.09 µM; with OVCAR-3 ovarian, 1.4 µM; in the assay with OVCAR-5 ovarian, 1.82 µM; in the assay with MALME-3M melanoma, 2.1 µM. Further, the TGI was found to be 4.04 µM in the assay on OVCAR-8 ovarian; 6.7 µM with MDA-MB-231 breast; 8.49 µM in the assay with NCI-H226 lung; 3.96 µM with NCI-H522 lung; 5.19 µM in the assay with SK-MEL-28 melanoma; 3.24 µM in the assay on SNB-19 CNS. Moreover, the TGI in the assay with U251 CNS turned out to be 2.34 µM; with OVCAR-3 ovarian, 2.74 µM; in the assay with OVCAR-5 ovarian, 3.9 µM; in the assay on MALME-3M melanoma it was 5.91 µM.
On to `CCCCCCCCCCCCOC1C(C(CC(=O)N2CCN(Cc3ccc4c(c3)OCO4)CC2)NS(=O)(=O)c2cc(Cl)cc(Cl)c2)OC2OC(C)(C)OC21` (configuration not stated), for which the GI50 in the assay with OVCAR-8 ovarian is 20.6 µM; with MDA-MB-231 breast, 18.1 µM; in the assay on NCI-H226 lung, 43.5 µM; in the assay with NCI-H522 lung, 26.9 µM; in the assay on SK-MEL-28 melanoma, greater than 100 µM; in the assay on SNB-19 CNS, 44.7 µM. Besides, the GI50 in the assay on U251 CNS was 12.5 µM; in the assay with OVCAR-3 ovarian, 20.3 µM; in the assay with OVCAR-5 ovarian, 6.49 µM; with MALME-3M melanoma, greater than 93.1 µM. For the same compound, the TGI is greater than 100 µM in the assay with OVCAR-8 ovarian; greater than 89.8 µM in the assay with MDA-MB-231 breast; greater than 100 µM in the assay with NCI-H226 lung; greater than 100 µM in the assay on NCI-H522 lung; greater than 100 µM in the assay on SK-MEL-28 melanoma; greater than 100 µM with SNB-19 CNS. The TGI with U251 CNS, with OVCAR-3 ovarian, in the assay with OVCAR-5 ovarian and in the assay on MALME-3M melanoma was greater than 100 µM throughout.
Take `Cc1ccnc(Nc2ccc([N+](=O)[O-])c(NCCN3CCOCC3)n2)c1`: the GI50 is 0.0334 µM and 0.0201 µM in the assay with OVCAR-8 ovarian; 0.0213 µM and 0.0379 µM in the assay with MDA-MB-231 breast; 0.0594 µM with NCI-H226 lung; 0.00209 µM in the assay with NCI-H522 lung; 0.0312 µM in the assay with SNB-19 CNS; 0.00524 µM in the assay with U251 CNS. The values for the GI50 in the assay with OVCAR-3 ovarian, with OVCAR-5 ovarian and with MALME-3M melanoma were 0.00266 µM, 0.074 µM and 0.00617 µM, respectively. The TGI in the assay on OVCAR-8 ovarian is greater than 100 µM; with MDA-MB-231 breast, 48.5 µM; in the assay on NCI-H522 lung it was 0.00686 µM; in the assay on SK-MEL-28 melanoma it was 30.3 µM; in the assay with U251 CNS, greater than 100 µM; in the assay with OVCAR-3 ovarian, 0.0078 µM.
